These results are taken from paper PMC10877564, “Activity of Gut-Derived Nisin-like Lantibiotics against Human Gut Pathogens and Commensals” (ACS Chemical Biology, 2024).

Positions of bridges follow the written chain, without caps; N, C: chain ends. Non-standard residues stand in square brackets, D forms with d. No end group written: not given here. Abu = CC[C@H](N)C(=O)O; Dhb = C/C=C(\N)C(=O)O; Dha = C=C(N)C(=O)O

Test in all cases: MIC assay, anaerobic broth dilution
Background: In broth dilution the organism is exposed to a series of concentrations in liquid medium.

For experiment [1], the system named is D. formicigenerans MSK.17.61. Type of experiment: cell-based, Dorea formicigenerans. Particulars: BHIS, 37 °C, 48 h, 3-fold serial dilution. The text has this:
(§1) Antibiotic treatment may result in collateral damage to commensal bacteria in the human microbiome, leading to dysbiosis and susceptibility to various diseases.[44] How lantibiotics impact Gram-positive commensals from the human gut has remained unclear. Therefore, we performed antimicrobial activity tests of these lantibiotics against selected Gram-positive human gut commensals, most of which belong to the Lachnospiraceae family, one of the most abundant bacterial families in the human gut.[27] In general, human gut commensals were more susceptible to the set of investigated lantibiotics compared to pathogens (Figure 3).
(§2) Elution Buffer (4 M guanidine hydrochloride, 20 mM Tris HCl, pH 7.5 at 25 °C, 100 mM NaCl, 1 M imidazole). Peptides eluted from the Ni resin were concentrated and desalted using 3 kDa Amicon filters (Millipore). For leader peptide removal, the peptide (1:20 trypsin to peptide) was incubated with the trypsin protease in 50 mM Tris-HCl, pH 8 overnight at 37 °C. Lastly, the core peptides were further purified with HPLC using an Agilent 1200 instrument (Agilent) as specified in general methods. About 1.5 mg recombinant peptide was obtained after HPLC purification per […]
(§3) All MIC assays were performed under anaerobic condition. […] Lantibiotics were dissolved in DPBS, and concentrations were determined by BCA assay (Pierce) according to the manufacturer’s protocol. […]

Experiment [2] relates to Coprococcus eutactus MSK.18.32. In kind it is cell-based. Conditions: Coprococcus eutactus MSK.18.32; anaerobic, BHIS, 37 °C, 48 h, 3-fold serial dilution.
Text: as §1, §2, §3

The next experiment has as its system S. aureus USA300 (MRSA). In kind it is cell-based, Staphylococcus aureus. Conditions: BHIS, 37 °C, 48 h, 3-fold serial dilution.
Text: Next, we set out to test the antimicrobial activities of these purified lantibiotics against a panel of Gram-positive bacteria that are representatives of some of the most prevalent human pathogens: VRE, Methicillin-resistant S. aureus USA300 (MRSA), Methicillin-resistant Staphylococcus epidermidis SK135 (MRSE), Listeria monocytogenes 10403S, and Clostridioides difficile VPI10463. We examined the growth of bacteria in a 96-well plate under a concentration gradient of lantibiotics under anaerobic conditions (Figure S2B).
Elution Buffer (4 M guanidine hydrochloride, 20 mM Tris HCl, pH 7.5 at 25 °C, 100 mM NaCl, 1 M imidazole). Peptides eluted from the Ni resin were concentrated and desalted using 3 kDa Amicon filters (Millipore). For leader peptide removal, the peptide (1:20 trypsin to peptide) was incubated with the trypsin protease in 50 mM Tris-HCl, pH 8 overnight at 37 °C. Lastly, the core peptides were further purified with HPLC using an Agilent 1200 instrument (Agilent) as specified […]
in general methods. […]
For broth cultures, isolates were grown in pre-reduced BHI supplemented with 5 g/L yeast extract (Difco, BD) and 0.1% L-cysteine under anaerobic condition. […]
as §3

As to “nisin A (I[Dhb]AI[Dha]LC[Abu]PGCK[Abu]GALMGCNMK[Abu]A[Abu]CHCSIHV[Dha]K; thioether 8-11, 13-19, 23-26, 25-28, 3-7; UniProt P13068 24-57, looked up) [prototypical class I lantibiotic produced by L. lactis, food preservative; commercial nisin A]”, the “nisin A MIC” value was 0.0110 µM in experiment [1], 0.0110 µM in experiment [2] and 2.67 µM in the experiment with S. aureus USA300 (MRSA).
